# Reference: patent US20210060158A1, “AGONIST OF ARYL HYDROCARBON RECEPTOR FOR USE IN CANCER COMBINATION THERAPY” (INSTITUT CURIE, priority 2017, published 2021)
# How the values were obtained:
# peritoneal mo-DC = experiment: Peritoneal MHCII+CD226+ mo-DC in antibiotics-treated mice fed I3C-supplemented or control diet; format: in vivo, mouse; conditions: I3C-supplemented versus control diet, peritoneal lavage
# Excerpt: FIG. 4: AhR is involved in mo-DC differentiation in vivo in the mouse. (A-C) Ear skin from individual AhR^-/- mice or WT littermates (A-B), or C57BL/6 mice fed with an experimental diet supplemented or not with indole-3-carbinol […]) (C), was digested to prepare single-cell suspensions. After gating on live CD45^+CD3^-NK1.1^-CD19^-Ly6G^-CD24^- CD11b^+ cells, cells were separated into 5 subsets based on the expression of Ly6C, CD64, MHC II and CCR2. (A) One representative AhR^-/- and WT mouse is shown. (B-C) Proportions of monocytes, early mo-DC, mo-DC, MHC II^+ macrophages and resident MHC II^- macrophages among Ly6C^+ or CD64^+ cells. Each symbol represents an individual mouse (B n=9 in 2 independent experiments, C n=12 in 2 independent experiments).*p<0.05, **p<0.01. (D-E) Cells from the peritoneal lavage were analyzed by flow cytometry. After gating on live CD115^+CD11b^+ cells, cells were separated into MHCII^+CD226^+ cells and ICAM2^+MHCII^- cells. (D) Cell-sorted cells were analyzed after cytospin and Giemsa/May-Grünwald staining. Bar=10 μm. Representative of 2 independent experiments. […] To address whether the decrease of peritoneal mo-DC upon antibiotics treatment was AhR-dependent, we fed antibiotics-treated mice with a […]-supplemented or control diet, and analyzed cells from the peritoneal lavage (FIG. 3E).
# [1] = tested on: dermal mo-DC and MHC class II+ macrophages; experiment: Skin mo-DC and macrophage proportions in mice fed I3C-supplemented diet; format: in vivo, mouse; conditions: supplemented diet versus control diet
# Excerpt: FIG. 4: AhR is involved in mo-DC differentiation in vivo in the mouse. (A-C) Ear skin from individual AhR^-/- mice or WT littermates (A-B), or C57BL/6 mice fed with an experimental diet supplemented or not with indole-3-carbinol […]) (C), was digested to prepare single-cell suspensions. After gating on live CD45^+CD3^-NK1.1^-CD19^-Ly6G^-CD24^- CD11b^+ cells, cells were separated into 5 subsets based on the expression of Ly6C, CD64, MHC II and CCR2. (A) One representative AhR^-/- and WT mouse is shown. (B-C) Proportions of monocytes, early mo-DC, mo-DC, MHC II^+ macrophages and resident MHC II^- macrophages among Ly6C^+ or CD64^+ cells. Each symbol represents an individual mouse (B n=9 in 2 independent experiments, C n=12 in 2 independent experiments).*p<0.05, **p<0.01. (D-E) Cells from the peritoneal lavage were analyzed by flow cytometry. After gating on live CD115^+CD11b^+ cells, cells were separated into MHCII^+CD226^+ cells and ICAM2^+MHCII^- cells. (D) Cell-sorted cells were analyzed after cytospin and Giemsa/May-Grünwald staining. Bar=10 μm. Representative of 2 independent experiments. (E) C57BL/6 mice fed with an experimental diet supplemented or not with […], and treated or not with a cocktail of antibiotics. […] To address the physiological relevance of our findings, we analyzed the role of AhR in mo-DC and mo-Mac differentiation in vivo in the mouse. […]
# Treg cells = experiment: Induction of functional Treg cells upon administration
# Excerpt: The impact of a given AHR agonist on Treg cells may be estimated by exposing purified T cells (typically CD4^+ T cells) in vitro with the said agonist. Treg cells are characterized by expression of the transcription factor Foxp3.
# [2] = tested on: IRF4 expression in CD14+ monocytes; experiment: IRF4 and MAFB expression in monocytes after 3 h of culture, RT-qPCR; format: cell-based, human; conditions: 3 h culture, with IL-4 (FICZ: with IL-4 and TNF-α)
# Protocol: (§1) FIG. 2: AHR is a molecular switch for mo-DC versus mo-Mac differentiation. (A-B) CD14^+ monocytes were infected at day 0 with lentivirus containing sh RNA against AHR, or control sh RNA. After 5 days of culture, cells were analyzed by Immuno Blot (A) or by flow cytometry (B). (A) Silencing quantified based on Immuno Blot stainings. (B) Proportions of DC and macrophages in the culture at day 5. Each symbol represents an individual donor (n=6 in 3 independent experiments). *p<0.05. (C) Monocytes were cultured with MCSF, IL-4 and TNF-α for 5 days, in the presence of various concentrations of FICZ (AHR agonist) or SR1 (AHR inhibitor). Proportions of DC and macrophages at day 5. […] (D-E) CD14^+ monocytes were analyzed directly after isolation, or were cultured for 3h in medium alone or with various combinations of MCSF, IL-4, TNF-α, FICZ or SRI. (D) Relative expression of IRF4 and MAFB measured by RT-qPCR. […] (E) Expression of IRF4 and MAFB at the single cell level was measured by fluorescent in situ hybridization coupled to flow cytometry. […]
# To decipher how AHR shapes monocyte fate, we assessed IRF4 and MAFB expression in monocytes after 3 h of culture with various combinations of M-CSF, IL-4, TNF-α, SR1 and FICZ (FIG. 2D). We also analyzed the expression of CYP1A1, a known direct target of AHR (Stockinger et al., 2014), as a control for AHR activation. […]
# CD14+ monocytes = experiment: Human CD14+ monocyte differentiation into mo-DC versus mo-Mac (culture with M-CSF, IL-4 and TNF-α, flow cytometry at day 5); format: cell-based; conditions: monocytes cultured with M-CSF, IL-4 and TNF-α for 5 days, various doses of compound
# Protocol: as §1
# FIG. 3: AHR acts on mo-DC differentiation through BLIMP-1. […] PRDM1 expression measured by RT-qPCR. […] Total cells were lyzed at different days and analyzed by Immuno Blot. […] After 5 days of culture, cells were analyzed by Immuno Blot (C) or by flow cytometry (D-E). (C) Silencing quantified based on Immuno Blot stainings. […]
SMILES,peritoneal mo-DC differentiation in antibiotics-treated mice (peritoneal mo-DC),MHC class II+ macrophages in the skin [1],mo-DC in the skin [1],induction of functional Treg cells (Treg cells),IL-4-induced IRF4 expression [2],mo-DC development / proportions at day 5 (CD14+ monocytes),mo-Mac development / proportions at day 5 (CD14+ monocytes)
"OCc1c[nH]c2ccccc12 [I3C, indole-3-carbinol]",restored mo-DC differentiation in antibiotics-treated mice almost up to normal proportions,decreased,significantly increased,does not induce functional Treg cells,,,
"CC(C)n1cnc2c(NCCc3ccc(O)cc3)nc(-c3csc4ccccc34)nc21 [SR1, stemregenin-1]",,,,,inhibited,decreasing,increased
